Source: US5180742A, “Quinone derivatives, their production and use” (Takeda Chemical Industries, Ltd., priority 1984, dated 1993)
One block for each compound: values may come before it.

Assays:
[1] = test system: O2^- production in guinea pigs peritoneal macrophages; assay: Inhibitory effect on O2- production in guinea pig peritoneal macrophages (chemiluminescence); format: cell-based, guinea pig (Hartley); settings: Cavia porcellus, Peritoneal macrophage, 3 experiments
Method: Superoxide (O2^-) Production in Guinea Pig Peritoneal Macrophages
Male Hartley guinea pigs weighing 400-450 g were given intraperitoneally 5 ml of liquid paraffin. Four days later, 15 ml of Hank's buffer were administered into the peritoneal cavity for harvest of peritoneal cells. Macrophages in the peritoneal cells were purified by the method of Wood, P. R. [J. Immunol. Methods, 28, 117-124 (1979)].
The purity of macrophages was more than 95%. The reaction mixture contained 75 μl of macrophages (1×10^7 cells/ml), 5 μl of luminol, 10 μl of phorbol myristate acetate and 10 μl of drugs in a total volume of 100 μl. O2^- Product was assayed by chemiluminescence. Drugs were dissolved in a 10% dimethyl sulfoxide.

[2] = test system: LTD4-induced bronchoconstriction; assay: Effect on LTD4-induced bronchoconstriction in guinea pigs; format: in vivo
Method: Effect on LTD4 -Induced Brochoconstriction in Guinea Pigs
Bronchoconstriction in guinea pigs was measured by the method of Konzett-Rossler[Naunyn-Schmiedeberg's Arch. exp. Path. Pharmak., 195, 71-74(1940)]. The animals were anesthetized with urethane (1.5 g/kg, intraperitoneally) and the trachea was cannulated. The animals were artificially ventilated by means of a respirator (Harvard apparatus rodent respirator) at a rate of 70 strokes/min and a constant volume of 5-7 ml. Inflation pressure was kept constantly at 10 cm H2 O. Changes in overflow of air from a side-arm of the cannula were recorded on Rectigraph-8S via a bronchospasm transducer for 15 min. LTD4 (10 μg/kg) was given into the […] through an indwelling cannula. Each specimen suspended in a 5% gum arabic solution was also given through the same cannula 1 or 24 hrs before the LTD4 administraction.

[3] = test system: PAF-induced bronchoconstriction; assay: Effect on PAF-induced bronchoconstriction in guinea pigs; format: in vivo; settings: one hour before PAF
Method: Platelet Activating Factor (PAF)-Induced Bronchoconstriction in Guinea Pigs
Experimental procedure in this experiment was the same as that in LTD4 -induced bronchoconstriction shown in Experimental example 7. PAF is an intraveneous dose of 1 μg/kg was used. Each specimen suspended in a 5% gum arabic solution was given orally one hour before the PAF administration.

[4] = test system: Immunoglobulin-G1 mediated bronchoconstriction reaction; assay: Action on immunoglobulin-G1 mediated bronchoconstriction reaction in guinea pigs; format: in vivo, Hartley guinea pigs; settings: Cavia porcellus; 20 mg/kg oral, 1 hour before antigen
Method: Action on the Immunoglobulin-G1 Mediated Bronchoconstriction Reaction in Guinea Pigs
In accordance with the method of Orange and Moore (Orange, R. P. and Moore E. G. , J. Immunol., 116, 392-397, 1976), female and male Hartley guinea pigs weighing about 350 g were sensitized by intraperitoneal application of an emulsion (1 ml) composed of egg albumin (1 mg) and Freund's complete adjuvant (produced by Wako Pure-Chemical Industries, Ltd. of Japan). 3 Weeks after the sensitization, a serum antibody level in the sensitized guinea pigs was measured by means of the 3-hours passive cutaneous anaphylaxis (PCA) reaction in guinea pigs. […] The broncoconstriction reaction resulting from the antigen-antibody reaction was measured in accordance with the Konzett-Rossler method (Konzett, H. and Rossler, R., Naunyn-Schmiedeberg'ss Arch. exp. Path. pharmak., 195, 71-74, 1940). The guinea pigs were fixed on the dorsal position under anesthesia with a urethane (1.5 g/kg given intraperitonealy). An incision was made through the trachea, which was connected to an artificial respirator (manufactured by Harvard Co.) through an endotracheal tube, with a side tube of the endotracheal tube being attached to a brochoconstricting transducer (type 7020, manufactured by Ugobasile Co.). While an air volume per ventilation was adjusted to 5 to 7 ml and an air ventilation rate was controlled at 70 times/min., with a load pressure to the lung set at 10 cm H2 O, the overflown air volume was recorded on Rectigraphy-8S (manufactured by Sanei Sokki Inc. of Japan) through a transducer. After 1 mg/kg of gallamine triethiodide was given intravenously to the animals, 1 mg/kg of antigen, egg albumin dissolved in physiological saline, was applied intravenously to induce a brochoconstriction reaction. The bronchconstriction reaction was recorded for the period of time of 15 minutes. A drug was suspended in 5% gum arabic solution, and given orally 1 hour before the application of the antigen. Percent inhibition of the immunoglobuin G1 mediated bronchoconstriction reaction in guinea pigs are shown below in Table 3.

5-Lipoxygenase = target: T1, 5-Lipoxygenase (Rattus norvegicus, UniProt P12527); assay: 5-Lipoxygenase inhibitory activity: 5-HETE production in RBL-1 cells (HPLC); format: cell-based, rat (RBL-1, rat basophilic leukemia cells); settings: arachidonic acid + A 23187, 37° C., 20 minutes, read-out: 5-HETE production inhibiting effect (IC50)
T1 construct: endogenous in cells; host or cells: RBL-1 (rat basophilic leukemia cells)
T1 sequence (P12527 1-673): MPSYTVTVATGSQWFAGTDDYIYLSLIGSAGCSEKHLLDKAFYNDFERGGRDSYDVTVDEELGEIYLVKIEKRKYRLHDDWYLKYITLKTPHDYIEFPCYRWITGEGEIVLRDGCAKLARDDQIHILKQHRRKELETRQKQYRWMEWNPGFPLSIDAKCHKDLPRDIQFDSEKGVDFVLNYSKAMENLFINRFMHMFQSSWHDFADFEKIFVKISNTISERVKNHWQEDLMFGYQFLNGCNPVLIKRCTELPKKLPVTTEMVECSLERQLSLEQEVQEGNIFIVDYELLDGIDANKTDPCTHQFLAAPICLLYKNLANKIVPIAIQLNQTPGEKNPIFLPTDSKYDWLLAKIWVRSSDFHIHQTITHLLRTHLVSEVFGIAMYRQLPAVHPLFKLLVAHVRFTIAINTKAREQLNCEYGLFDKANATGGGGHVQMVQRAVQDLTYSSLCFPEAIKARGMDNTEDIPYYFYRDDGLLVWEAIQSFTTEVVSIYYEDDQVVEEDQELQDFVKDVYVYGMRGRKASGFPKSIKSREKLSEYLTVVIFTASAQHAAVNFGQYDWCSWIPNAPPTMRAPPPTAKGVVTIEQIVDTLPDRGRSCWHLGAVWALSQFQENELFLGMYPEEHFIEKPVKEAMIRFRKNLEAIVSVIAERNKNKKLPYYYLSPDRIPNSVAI
Method: 5-Lipoxygenase Inhibitory Activity
10^7 RBL-1 cells (rat basophilic leukemia cells) were suspended in 0.5 ml of MCM (mast cell medium), and test solutions (made up of 0.5 ml of MCM, 50 μg of arachidonic acid, 10 μg of A 23187 (calcium ionophore, Eli Lilly) and 1 μM, 0.1 μM, 0.01 μM and0.001 μM as the final concentration of the quinone compound, respectively) prepared previously were added respectively to the suspension, followed by reaction at 37° C. for 20 minutes. After the conclusion of the reaction, 4 ml of ethanol and 1,4-dimethoxy-2-methyl-3-(3-methoxypropyl)naphthalene as the internal reference drug were added to the reaction solution, and the mixture was shaken thoroughly and allowed to stand at room temperature for 10 minutes. Then, it was centrifuged (2000 r.p.m.) for 10 minutes, and the supernatant fluid was separated and concentrated to dryness under reduced pressure. 0.5 Milliliter of 60% aqueous methanol was added to the concentrate, and 100 μl of the resulting solution was taken and subjected to high-performance liquid chromatography to determine amount of 5-HETE (5-hydroxyeicosatetraenoic acid). Determination of 5-HETE was made through measurement of an absorption at 237 nm with a UV absorption monitor.
The 5-HETE production inhibitory effect (IE) was expressed by [formula] wherein a is a peak height or peak area corrected by the peak for the internal reference when the quinone compound is not contained; b is a peak height or peak area corrected by the peak for the internal reference when the quinone compound is contained.

mice of ICR breed = format: in vivo; settings: 1000 mg/kg oral, male ICR mice, 7 days
Excerpt: Acute Toxicity Test in Mice (Acute Toxicity)
1000 Milligrams per kilogram of each set specimen was applied orally to groups of 5 five-weeks old male mice of ICR breed, and a number of dead animals observed for the 7-days period was counted.

[5] = test system: lipid peroxides production in rat brain homogenates; assay: Inhibitory action on lipid peroxides production in rat brain homogenates (thiobarbituric acid method); format: biochemical, rat (SD); settings: n = 4-6
Method: Inhibitory Action on Lipid Peroxides Production in Rat Brain Homogenates
The male SD rat brain tissue was used as 5% homogenate in phosphate-buffered solution. After incubation of the homogenate for 1 hour at 37° C., the amount of lipid peroxides produced was determined by the thiobarbituric acid method according to the description of Ohkawa et al. (Analytical Biochemistry, 95: 551, 1979)
Test compounds were used as a solution of dimethylsulfoxide. The inhibitory action on lipid peroxide production was expressed as a % inhibition as compared with the amount of production in the vehicle group. Results

Compound: Cc1c(C)c2c(c(C)c1O)CCC(C)(CCCC(C)CCCC(C)CCCC(C)C)O2 (racemic) [dl-α-tocophenol, reference compound]
inhibition at 100 µM ([1]; 10^-4 M): 11 ± 6%
inhibition at 10 µM ([1]; 10^-5 M): 3 ± 2%

Compound: COc1ccc(C(CCCCC(=O)O)C2=C(C)C(=O)C(C)=C(C)C2=O)cc1 (stereo not shown) [Compound No. 22, 6-(3,5,6-trimethyl-1,4-benzoquinon-2-yl)-6-(4-methoxyphenyl)hexanoicacid]
% Inhibition of LTD4-induced bronchoconstriction ([2]; 0.313 mg/kg, 1 hr. before LTD4): 39%
% Inhibition of LTD4-induced bronchoconstriction ([2]; 1.25 mg/kg, 1 hr. before LTD4): 85%
% Inhibition of LTD4-induced bronchoconstriction ([2]; 5 mg/kg, 1 hr. before LTD4): 90%
% Inhibition of LTD4-induced bronchoconstriction ([2]; 5 mg/kg, 24 hrs. before LTD4): 24%
% Inhibition of PAF-induced bronchoconstriction ([3]; 0.313 mg/kg oral): 43%
% Inhibition of PAF-induced bronchoconstriction ([3]; 1.25 mg/kg oral): 92%
% Inhibition of PAF-induced bronchoconstriction ([3]; 5 mg/kg oral): 91%
inhibition in vivo at 20 mg/kg [4]: 82%

Compound: CC1=C(C)C(=O)C(C(CCCCCC(=O)O)c2ccc(F)cc2)=C(C)C1=O (stereo not shown) [Compound No. 87]
IC50 (5-Lipoxygenase): 100 nM
Acute toxicity (number of dead animals/number of animals used) (mice of ICR breed): 0/5
% Inhibition of LTD4-induced bronchoconstriction ([2]; 0.313 mg/kg, 1 hr. before LTD4): 80%
% Inhibition of LTD4-induced bronchoconstriction ([2]; 1.25 mg/kg, 1 hr. before LTD4): 89%
% Inhibition of LTD4-induced bronchoconstriction ([2]; 5 mg/kg, 1 hr. before LTD4): 93%
% Inhibition of LTD4-induced bronchoconstriction ([2]; 5 mg/kg, 24 hrs. before LTD4): 79%
% Inhibition of PAF-induced bronchoconstriction ([3]; 0.08 mg/kg oral): 64%
% Inhibition of PAF-induced bronchoconstriction ([3]; 0.313 mg/kg oral): 48%
% Inhibition of PAF-induced bronchoconstriction ([3]; 1.25 mg/kg oral): 71%
inhibition in vivo at 20 mg/kg [4]: 81%

Compound: CC1=C(C)C(=O)C(C(CCCCCC(=O)O)c2ccc(Cl)cc2)=C(C)C1=O (stereo not shown) [Compound No. 90, 7-(4-chlorophenyl)-7-(3,5,6-trimethyl-1,4-benzoquinon-2-yl)heptanoic acid]
Acute toxicity (number of dead animals/number of animals used) (mice of ICR breed): 0/5
inhibition in vivo at 20 mg/kg [4]: 61%

IC50 (5-Lipoxygenase): 10 nM
Compound: COc1ccc(C(CCCCCC(=O)O)C2=C(C)C(=O)C(C)=C(C)C2=O)cc1 (stereo not shown) [compound 23]
% Inhibition of LTD4-induced bronchoconstriction ([2]; 0.313 mg/kg, 1 hr. before LTD4): 69%
% Inhibition of LTD4-induced bronchoconstriction ([2]; 1.25 mg/kg, 1 hr. before LTD4): 80%
% Inhibition of LTD4-induced bronchoconstriction ([2]; 5 mg/kg, 1 hr. before LTD4): 68%
% Inhibition of LTD4-induced bronchoconstriction ([2]; 5 mg/kg, 24 hrs. before LTD4): 49%
% Inhibition of PAF-induced bronchoconstriction ([3]; 0.08 mg/kg oral): 75%
% Inhibition of PAF-induced bronchoconstriction ([3]; 0.313 mg/kg oral): 71%
% Inhibition of PAF-induced bronchoconstriction ([3]; 1.25 mg/kg oral): 73%
inhibition in vivo at 20 mg/kg [4]: 83%

Compound: CC1=C(C)C(=O)C(C(CCCCCC(=O)O)c2ccc(C)s2)=C(C)C1=O (stereo not shown) [compound 33]
Acute toxicity (number of dead animals/number of animals used) (mice of ICR breed): 0/5
inhibition in vivo at 20 mg/kg [4]: 75%

Compound: CC1=C(C)C(=O)C(C(CCCC(=O)O)c2ccccc2)=C(C)C1=O (stereo not shown) [compound 36]
IC50 (5-Lipoxygenase): 320 nM
Acute toxicity (number of dead animals/number of animals used) (mice of ICR breed): 0/5
inhibition in vivo at 20 mg/kg [4]: 80%

Compound: COC1=C(OC)C(=O)C(C(CCCCCC(=O)O)c2ccc(F)cc2)=C(C)C1=O (stereo not shown) [compound 88]
Acute toxicity (number of dead animals/number of animals used) (mice of ICR breed): 0/5
inhibition in vivo at 20 mg/kg [4]: 79%

Compound: CC1=C(C(CCCCCC(=O)O)c2ccc(Cl)cc2)C(=O)c2ccccc2C1=O (stereo not shown) [compound 92]
Acute toxicity (number of dead animals/number of animals used) (mice of ICR breed): 0/5
inhibition in vivo at 20 mg/kg [4]: 92%

Compound: COC1=C(OC)C(=O)C(C(CCCCCC(=O)O)c2ccc(C)cc2)=C(C)C1=O (stereo not shown) [compound 94]
Acute toxicity (number of dead animals/number of animals used) (mice of ICR breed): 0/5
inhibition in vivo at 20 mg/kg [4]: 81%

Compound: CC1=C(C)C(=O)C(C(CCCCCC(=O)O)c2ccc(C(C)C)cc2)=C(C)C1=O (stereo not shown) [compound 95]
Acute toxicity (number of dead animals/number of animals used) (mice of ICR breed): 0/5
inhibition in vivo at 20 mg/kg [4]: 63%

Compound: COc1ccc(C(CCCCCC(=O)O)C2=C(C)C(=O)C(C)=C(C)C2=O)cc1OC (stereo not shown) [compound 97]
Acute toxicity (number of dead animals/number of animals used) (mice of ICR breed): 0/5
inhibition in vivo at 20 mg/kg [4]: 85%

Compound: tocopherol [reference compound]
Inhibition of lipid peroxides production ([5]; 10^-4 M): 46.5 ± 2.5%
Inhibition of lipid peroxides production ([5]; 10^-5 M): 51.8 ± 10.2%
Inhibition of lipid peroxides production ([5]; 10^-6 M): 0%
